Measurements from patent US6651382B1, “Method for preventing the release of gramineous plant pollens” (National Agricultural Research Organization, priority 1999, dated 2003).

Tested on: flowering barley line derived from a barley line "Satsuki-Nijo"
Test: Flowering inhibition test on harvested unflowered barley ears treated with reagent solution
Assay type: in vivo
Protocol: A flowering barley line derived from a barley line “Satsuki-Nijo” was conventionally cultivated in the fields. At the earing time, unflowered ears immediately after earing were harvested. Each group of three ears was then treated with 10 cc reagent solution containing 1-100 ppm methyl jasmonate as a jasmonic acid derivative in an artificial climate chamber under the following conditions: in the light having a brightness of 120 […] for 14 hours at 25° C.; and in the dark for 10 hours at 15° C.
Flowered ears were transferred to a culture medium for cuttings and cultivated for about 20 days. The number of anthers remaining in a glumaceous flower after self-pollination was measured and used as a control.

[1] = Table 2 (repeated test), reagent concentration 1 ppm
[2] = Table 2 (repeated test), reagent concentration 10 ppm
[3] = Table 2 (repeated test), reagent concentration 100 ppm

CC/C=C\CC1C(=O)CCC1CC(=O)OC (stereo not drawn) [Methyl jasmonate, methyl jasmonate]
Number of remaining anthers per one glumaceous flower (Table 1, reagent concentration 1 ppm, after self-pollination): 0.7
Number of flowered ears on the 6th day (Table 1, reagent concentration 1 ppm, group of three ears, 10 cc solution): 3
Number of remaining anthers per one glumaceous flower (Table 1, reagent concentration 10 ppm, after self-pollination): 1.7
Number of remaining anthers per one glumaceous flower (Table 1, reagent concentration 10 ppm, after self-pollination, listed as methyl jasmonate): more anthers than non-treated ears
Number of flowered ears on the 6th day (Table 1, reagent concentration 10 ppm, group of three ears, 10 cc solution): 3
Number of remaining anthers per one glumaceous flower (Table 1, reagent concentration 100 ppm, after self-pollination): 2.1
Number of remaining anthers per one glumaceous flower (Table 1, reagent concentration 100 ppm, after self-pollination, listed as methyl jasmonate): many more remaining anthers
Number of flowered ears on the 6th day (Table 1, reagent concentration 100 ppm, group of three ears, 10 cc solution): 0
Number of flowered ears on the 6th day (Table 1, reagent concentration 100 ppm, group of three ears, 10 cc solution, listed as methyl jasmonate): no flowering was observed
Number of flowered ears on the 6th day [1]: 3
Number of remaining anthers per one glumaceous flower [1]: 1.1
Number of flowered ears on the 6th day [2]: 3
Number of remaining anthers per one glumaceous flower [2]: 1.7
Number of flowered ears on the 6th day [3]: 0
Number of remaining anthers per one glumaceous flower [3]: 2.6
